Test results as given in ChEMBL document CHEMBL1909046, “DrugMatrix in vitro pharmacology data”.
pIC50, pKi: −log10 of the molar value.

What was measured:
[1] = molecular target: T1, Alpha-1D adrenergic receptor (Homo sapiens, UniProt P25100); assay type: cell membranes, HEK293, Membrane; conditions: for IC50: hek293; for pIC50: read-out: IC50; for pKi: read-out: Ki; for all read-outs here: in other assays of this panel Not Active means under 50% inhibition at 10 µM
T1 sequence (P25100 whole entry): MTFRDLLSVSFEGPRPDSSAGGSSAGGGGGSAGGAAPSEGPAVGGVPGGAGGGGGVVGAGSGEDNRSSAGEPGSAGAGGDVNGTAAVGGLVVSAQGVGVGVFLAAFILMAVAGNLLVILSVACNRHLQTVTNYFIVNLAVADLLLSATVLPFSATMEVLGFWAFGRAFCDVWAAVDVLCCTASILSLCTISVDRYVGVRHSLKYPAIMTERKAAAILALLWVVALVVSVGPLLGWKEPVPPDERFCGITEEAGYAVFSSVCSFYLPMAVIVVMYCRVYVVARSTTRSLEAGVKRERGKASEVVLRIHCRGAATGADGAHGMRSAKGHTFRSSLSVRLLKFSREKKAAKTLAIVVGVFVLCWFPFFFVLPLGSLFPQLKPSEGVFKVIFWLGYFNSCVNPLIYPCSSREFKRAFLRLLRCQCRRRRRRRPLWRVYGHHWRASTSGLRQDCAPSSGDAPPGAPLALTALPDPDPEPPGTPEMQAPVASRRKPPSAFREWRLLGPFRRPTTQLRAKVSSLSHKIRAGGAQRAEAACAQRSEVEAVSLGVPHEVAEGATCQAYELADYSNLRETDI

[2] = DRUGMATRIX: Glutamate, AMPA radioligand binding (ligand: [3H] AMPA); assay type: cell membranes, Rattus norvegicus, Wistar, Cerebral cortex, Membrane; conditions: Not Active = under 50% inhibition at 10 µM
[3] = molecular target: Kappa-type opioid receptor (Homo sapiens, UniProt P41145); experiment: DRUGMATRIX: Opiate kappa (OP2, KOP) radioligand binding (ligand: [3H] Diprenorphine); assay type: cell membranes, HEK293, Membrane; conditions: Not Active = under 50% inhibition at 10 µM; for IC50: hek293
Kappa-type opioid receptor, sequence (P41145 whole entry): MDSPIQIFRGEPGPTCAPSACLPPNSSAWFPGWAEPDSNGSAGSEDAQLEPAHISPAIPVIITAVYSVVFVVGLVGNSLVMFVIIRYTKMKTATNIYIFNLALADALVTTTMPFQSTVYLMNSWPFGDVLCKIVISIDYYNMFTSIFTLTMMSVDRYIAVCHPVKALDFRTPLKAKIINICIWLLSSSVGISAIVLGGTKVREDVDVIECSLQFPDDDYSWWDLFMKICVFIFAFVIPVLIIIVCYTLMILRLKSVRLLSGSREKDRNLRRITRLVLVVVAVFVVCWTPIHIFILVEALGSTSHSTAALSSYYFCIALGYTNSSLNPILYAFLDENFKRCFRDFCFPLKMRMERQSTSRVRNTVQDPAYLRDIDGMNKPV

[4] = DRUGMATRIX: Potassium Channel [KATP] radioligand binding (ligand: [3H] Glyburide); assay type: cell membranes, Membrane; conditions: hit-t15, Not Active = under 50% inhibition at 10 µM
[5] = molecular target: Mitogen-activated protein kinase 1 (Homo sapiens, UniProt P28482); experiment: DRUGMATRIX: Protein Serine/Threonine Kinase, ERK2 enzyme inhibition (substrate: Myelin Basic Protein); parameters: species or system Escherichia coli; conditions: Not Active = under 50% inhibition at 10 µM; for pIC50: read-out: IC50
Mitogen-activated protein kinase 1, sequence (P28482 whole entry): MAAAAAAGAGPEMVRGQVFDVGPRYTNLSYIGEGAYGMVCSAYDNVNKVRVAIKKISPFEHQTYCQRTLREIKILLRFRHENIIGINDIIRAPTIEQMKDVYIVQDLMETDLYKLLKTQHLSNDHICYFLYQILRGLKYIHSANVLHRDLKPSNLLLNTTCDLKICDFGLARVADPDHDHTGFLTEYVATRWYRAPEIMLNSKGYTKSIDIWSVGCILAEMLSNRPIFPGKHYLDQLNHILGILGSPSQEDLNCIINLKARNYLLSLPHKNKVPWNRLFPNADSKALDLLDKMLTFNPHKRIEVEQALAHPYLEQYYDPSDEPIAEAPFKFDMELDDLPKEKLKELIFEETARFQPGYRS

[6] = DRUGMATRIX: Purinergic P2X radioligand binding (ligand: [3H] alpha, beta-Methylene-ATP); assay type: cell membranes, Oryctolagus cuniculus, New Zealand albino, Urinary bladder, Membrane; conditions: Not Active = under 50% inhibition at 10 µM

Structure (SMILES) | IC50 [1] | IC50 [2] | Ki [2] | IC50 [3] | IC50 [4] | Ki [4] | pIC50 [5] | IC50 [6] | Ki [6] | IC50 [5] | pIC50 [1] | pKi [1] | pKi [3] | pIC50 ([3]; read-out: IC50) | pIC50 ([4]; read-out: IC50) | pKi ([4]; read-out: Ki)
O=C(Nc1ccc(Cl)c(Cl)c1)c1cc(Cl)cc(Cl)c1O [3,3',4',5-TETRACHLOROSALICYLANILIDE] | Not Active | Not Active | Not Active | Not Active | Not Active | Not Active | 6.05 | Not Active | Not Active |  |  |  |  |  |  | 
O=C(O)COC(=O)Cc1ccccc1Nc1c(Cl)cccc1Cl [ACECLOFENAC] | Not Active | Not Active | Not Active | Not Active | Not Active | Not Active | 5.23 | Not Active | Not Active |  |  |  |  |  |  | 
O=c1[nH]c2ccccc2c2ccccc12 | Not Active | Not Active | Not Active | Not Active | Not Active | Not Active |  | Not Active | Not Active | Not Active |  |  |  |  |  | 
CCO [ALCOHOL] | Not Active | Not Active | Not Active | Not Active | Not Active | Not Active |  | Not Active | Not Active | Not Active |  |  |  |  |  | 
CC(N)Cc1c[nH]c2ccc(OCc3cccs3)cc12 (stereo not drawn) [BW-723C86] | Not Active | Not Active | Not Active | Not Active | Not Active | Not Active |  | Not Active | Not Active | Not Active |  |  |  |  |  | 
CCN(CCO)CCCC(C)Nc1ccnc2cc(Cl)ccc12 (stereo not drawn) [HYDROXYCHLOROQUINE] |  | Not Active | Not Active | Not Active | Not Active | Not Active |  | Not Active | Not Active | Not Active | 5.32 | 5.63 |  |  |  | 
c1ccc2sc(SSc3nc4ccccc4s3)nc2c1 [BENZOTHIAZYL DISULFIDE] | Not Active | Not Active | Not Active |  | Not Active | Not Active |  | Not Active | Not Active | Not Active |  |  | 6.30 | 5.91 |  | 
CC(C)Cc1ccc([C@H](C)C(=O)O)cc1 [DEXIBUPROFEN] | Not Active | Not Active | Not Active | Not Active | Not Active | Not Active |  | Not Active | Not Active | Not Active |  |  |  |  |  | 
Cl.NC[C@H]1CC[C@H](C(=O)Oc2ccc(CCC(=O)O)cc2)CC1 [CETRAXATE HYDROCHLORIDE] | Not Active | Not Active | Not Active | Not Active | Not Active | Not Active |  | Not Active | Not Active | Not Active |  |  |  |  |  | 
Nc1nc(N)c2nc(CNc3ccc(C(=O)N[C@@H](CCC(=O)O)C(=O)O)cc3)cnc2n1 [AMINOPTERIN] | Not Active | Not Active | Not Active | Not Active | Not Active | Not Active |  | Not Active | Not Active | Not Active |  |  |  |  |  | 
NC(=O)NC(=O)Cc1ccccc1 [PHENACEMIDE] | Not Active | Not Active | Not Active | Not Active | Not Active | Not Active |  | Not Active | Not Active | Not Active |  |  |  |  |  | 
C[N+](C)(C)CCOC(N)=O.[Cl-] [CARBACHOL] | Not Active | Not Active | Not Active | Not Active | Not Active | Not Active |  | Not Active | Not Active | Not Active |  |  |  |  |  | 
O=C1c2ccccc2C(=O)C1c1ccccc1 [PHENINDIONE] | Not Active | Not Active | Not Active | Not Active | Not Active | Not Active |  | Not Active | Not Active | Not Active |  |  |  |  |  | 
CC(C)NCC(O)COc1ccc(CC(N)=O)cc1 (stereo not drawn) [ATENOLOL] | Not Active | Not Active | Not Active | Not Active | Not Active | Not Active |  | Not Active | Not Active | Not Active |  |  |  |  |  | 
OC[C@H]1O[C@@H]2O[C@H]3[C@H](O)[C@@H](O)[C@@H](O[C@H]4[C@H](O)[C@@H](O)[C@@H](O[C@H]5[C@H](O)[C@@H](O)[C@@H](O[C@H]6[C@H](O)[C@@H](O)[C@@H](O[C@H]7[C@H](O)[C@@H](O)[C@@H](O[C@H]8[C@H](O)[C@@H](O)[C@@H](O[C@H]1[C@H](O)[C@H]2O)O[C@@H]8CO)O[C@@H]7CO)O[C@@H]6CO)O[C@@H]5CO)O[C@@H]4CO)O[C@@H]3CO [BETADEX] | Not Active | Not Active | Not Active | Not Active | Not Active | Not Active |  | Not Active | Not Active | Not Active |  |  |  |  |  | 
COc1ccc(Cl)cc1C(=O)NCCc1ccc(S(=O)(=O)NC(=O)NC2CCCCC2)cc1 [GLYBURIDE] | Not Active | Not Active | Not Active | Not Active |  |  |  | Not Active | Not Active | Not Active |  |  |  |  | 8.42 | 9.36
CCN1CCN(C(=O)N[C@@H](C(=O)N[C@@H]2C(=O)N3[C@@H]2SC(C)(C)[C@@H]3C(=O)O)c2ccccc2)C(=O)C1=O [PIPERACILLIN] | Not Active | Not Active | Not Active | Not Active | Not Active | Not Active |  | Not Active | Not Active | Not Active |  |  |  |  |  | 
CNC[C@H](O)c1ccc(O)c(O)c1 [EPINEPHRINE] |  | Not Active | Not Active | Not Active | Not Active | Not Active |  | Not Active | Not Active | Not Active | 6.35 | 6.66 |  |  |  | 
CCC1(c2ccccc2)C(=O)NC(=O)NC1=O [PHENOBARBITAL] | Not Active | Not Active | Not Active | Not Active | Not Active | Not Active |  | Not Active | Not Active | Not Active |  |  |  |  |  | 
CC1(COc2ccc(CC3SC(=O)NC3=O)cc2)CCCCC1 (stereo not drawn) [CIGLITAZONE] | Not Active | Not Active | Not Active | Not Active | Not Active | Not Active |  | Not Active | Not Active | Not Active |  |  |  |  |  | 
OC[C@H]1O[C@@H]2O[C@H]3[C@H](O)[C@@H](O)[C@@H](O[C@H]4[C@H](O)[C@@H](O)[C@@H](O[C@H]5[C@H](O)[C@@H](O)[C@@H](O[C@H]6[C@H](O)[C@@H](O)[C@@H](O[C@H]7[C@H](O)[C@@H](O)[C@@H](O[C@H]1[C@H](O)[C@H]2O)O[C@@H]7CO)O[C@@H]6CO)O[C@@H]5CO)O[C@@H]4CO)O[C@@H]3CO [ALFADEX] | Not Active | Not Active | Not Active | Not Active | Not Active | Not Active |  | Not Active | Not Active | Not Active |  |  |  |  |  | 
Nc1nc(F)nc2c1ncn2[C@@H]1O[C@H](CO)[C@@H](O)[C@@H]1O [FLUDARABINE] | Not Active | Not Active | Not Active | Not Active | Not Active | Not Active |  | Not Active | Not Active | Not Active |  |  |  |  |  | 
O=C(O)CO [GLYCOLIC ACID] | Not Active | Not Active | Not Active | Not Active | Not Active | Not Active |  | Not Active | Not Active | Not Active |  |  |  |  |  | 
O=C(NCCN1CCOCC1)c1ccc(Cl)cc1 [MOCLOBEMIDE] | Not Active | Not Active | Not Active | Not Active | Not Active | Not Active |  | Not Active | Not Active | Not Active |  |  |  |  |  | 
COc1ccccc1OCCNCC(O)COc1cccc2[nH]c3ccccc3c12 (stereo not drawn) [CARVEDILOL] |  | Not Active | Not Active | Not Active | Not Active | Not Active |  | Not Active | Not Active | Not Active | 8.75 | 9.05 |  |  |  | 
COc1ccc(C[C@H](N)C(=O)N[C@H]2[C@@H](O)[C@H](n3cnc4c(N(C)C)ncnc43)O[C@@H]2CO)cc1 [PUROMYCIN] | Not Active | Not Active | Not Active | Not Active | Not Active | Not Active |  | Not Active | Not Active | Not Active |  |  |  |  |  | 
